# According to publication PMC10202811 (Nature Medicine, 2023):
# Where “and” joins values, the source holds several entries; their conditions need not be identical. Equal values may be shown once.
# Test: Plasma pharmacokinetics of lorlatinib at steady state (LC-MS/MS, non-compartmental analysis)
# Format: in vivo, human
# Set-up: Vz_F / Cmax_D / AUMClast / AUMC_TAU: unit not given here
# Conditions: for Tlag: unit assumed
# Text: Lorlatinib was isolated from human plasma by a liquid-iquid extraction procedure. […] A linear-log trapezoidal method was used [NT] A best-fit method was used to estimate terminal elimination and to extrapolate any plasma concentration versus time profiles to compute [NT].
# [1] = Cohort A1, 45 mg/m2 per dose, C1D15, Max, N 3
# [2] = Cohort A1, 45 mg/m2 per dose, C1D15, Min, N 3
# [3] = Cohort A1, 45 mg/m2 per dose, C1D15, individual patient
# [4] = Cohort A1, 60 mg/m2 per dose, C1D15, Max, N 3
# [5] = Cohort A1, 60 mg/m2 per dose, C1D15, Min, N 3
# [6] = Cohort A1, 60 mg/m2 per dose, C1D15, individual patient
# [7] = Cohort A1, 75 mg/m2 per dose, C1D15, Max, N 3
# [8] = Cohort A1, 75 mg/m2 per dose, C1D15, Min, N 3
# [9] = Cohort A1, 75 mg/m2 per dose, C1D15, individual patient
# [10] = Cohort A1, 95 mg/m2 per dose, C1D15, Max, N 9
# [11] = Cohort A1, 95 mg/m2 per dose, C1D15, Min, N 9
# [12] = Cohort A1, 95 mg/m2 per dose, C1D15, individual patient
# [13] = Cohort A1, 115 mg/m2 per dose, C1D15, Max, N 6
# [14] = Cohort A1, 115 mg/m2 per dose, C1D15, Min, N 6
# [15] = Cohort A1, 115 mg/m2 per dose, C1D15, individual patient
# [16] = Cohort A2, 100 mg per dose, C1D15, Max, N 5
# [17] = Cohort A2, 100 mg per dose, C1D15, Min, N 5
# [18] = Cohort A2, 100 mg per dose, C1D15, individual patient
# [19] = Cohort A2, 150 mg per dose, C1D15, Min, N 10
# [20] = Cohort A2, 150 mg per dose, C1D15, individual patient
# [21] = Cohort B2, 95 mg/m2 per dose, C1D15, Min, N 2
# [22] = Cohort B2, 95 mg/m2 per dose, C1D15, individual patient
# [23] = Cohort B2, 115 mg/m2 per dose, C1D15, Max, N 6
# [24] = Cohort B2, 115 mg/m2 per dose, C1D15, Min, N 6
# [25] = Cohort B2, 115 mg/m2 per dose, C1D15, individual patient
# [26] = Cycle 1 Day 1, Cohort A1, 95 mg/m2 per dose
# [27] = Cycle 1 Day 1, Cohort A1, 115 mg/m2 per dose
# [28] = Cycle 1 Day 1, Cohort A2, 150 mg per dose
# [29] = Cycle 1 Day 1, Cohort A2, 150 mg per dose, in h (unit assumed)
# [30] = Cycle 1 Day 1, Cohort A2, 150 mg per dose, in ng·h/mL (unit assumed)
smiles,measurement,setting,value
"C[C@H]1Oc2cc(cnc2N)-c2c(nn(C)c2C#N)CN(C)C(=O)c2ccc(F)cc21 [Lorlatinib, (10R)-7-amino-12-fluoro-2,10,16-trimethyl-15-oxo-10,15,16,17-tetrahydro-2H-8,4-(metheno)pyrazolo[4,3-h][2,5,11]-benzoxadiazacyclotetradecine-3-carbonitrile]",AUCtau or Cmax at steady state with oral dispersion formulation,17 patients who received the oral dispersion formulation,no differences
same,CLss_F,"Cohort A1, 45 mg/m2 per dose, C1D15, Geometric Mean, N 3",15.376 L/h
same,AUC_TAU,[1],3727.9 ng·h/mL
same,CLss_F,[1],19.85 L/h
same,Cmax,[1],639 ng/mL
same,Tmax,[1],2 h
same,AUC_TAU,[2],1259.74 ng·h/mL
same,Cmax,[2],243 ng/mL
same,Tmax,[2],1 h
same,AUC_TAU,[3],1259.74 ng·h/mL and 3727.9 ng·h/mL
same,CLss_F,[3],19.85 L/h and 12.41 L/h and 14.75 L/h
same,Cmax,[3],639 ng/mL and 243 ng/mL
same,Tmax,[3],2 h
same,CLss_F,"Cohort A1, 60 mg/m2 per dose, C1D15, Geometric Mean, N 3",13.223 L/h
same,AUC_TAU,[4],4173.07 ng·h/mL
same,CLss_F,[4],16.77 L/h
same,Cmax,[4],623 ng/mL
same,Tmax,[4],2 h
same,CLss_F,"Cohort A1, 60 mg/m2 per dose, C1D15, Median, N 3",12.07 L/h
same,AUC_TAU,[5],3503.02 ng·h/mL
same,CLss_F,[5],11.42 L/h
same,Cmax,[5],343 ng/mL
same,Tmax,[5],1 h
same,AUC_TAU,[6],3503.02 ng·h/mL and 4173.07 ng·h/mL
same,CLss_F,[6],12.07 L/h and 11.42 L/h and 16.77 L/h
same,Cmax,[6],343 ng/mL
same,Tmax,[6],2 h
same,CLss_F,"Cohort A1, 75 mg/m2 per dose, C1D15, Geometric Mean, N 3",15.412 L/h
same,AUC_TAU,[7],6555.75 ng·h/mL
same,CLss_F,[7],18.36 L/h
same,Cmax,[7],670 ng/mL
same,Tmax,[7],6 h
same,CLss_F,"Cohort A1, 75 mg/m2 per dose, C1D15, Median, N 3",17.43 L/h
same,AUC_TAU,[8],2723.69 ng·h/mL
same,CLss_F,[8],11.44 L/h
same,Cmax,[8],609 ng/mL
same,Tmax,[8],1 h
same,AUC_TAU,[9],6555.75 ng·h/mL and 2723.69 ng·h/mL
same,CLss_F,[9],11.44 L/h and 17.43 L/h and 18.36 L/h
same,Cmax,[9],609 ng/mL and 670 ng/mL
same,Tmax,[9],6 h and 2 h
same,CLss_F,"Cohort A1, 95 mg/m2 per dose, C1D15, Geometric Mean, N 9",9.802 L/h
same,AUC_TAU,[10],14697.9 ng·h/mL
same,CLss_F,[10],14.62 L/h
same,Cmax,[10],1880 ng/mL
same,CLss_F,"Cohort A1, 95 mg/m2 per dose, C1D15, Median, N 9",10.12 L/h
same,AUC_TAU,[11],3760.87 ng·h/mL
same,CLss_F,[11],6.46 L/h
same,Cmax,[11],590 ng/mL
same,Tmax,[11],1 h
same,AUC_TAU,[12],14697.9 ng·h/mL and 11566.7 ng·h/mL and 5234.23 ng·h/mL and 6616.73 ng·h/mL and 4786.75 ng·h/mL and 7725.79 ng·h/mL and 3760.87 ng·h/mL and 12827.9 ng·h/mL
same,CLss_F,[12],6.46 L/h and 12.54 L/h and 10.51 L/h and 8.31 L/h and 12.53 L/h and 7.77 L/h and 10.12 L/h and 14.62 L/h and 8.19 L/h
same,Cmax,[12],1420 ng/mL and 607 ng/mL and 842 ng/mL and 590 ng/mL and 1230 ng/mL and 1220 ng/mL and 938 ng/mL and 1880 ng/mL
same,Tmax,[12],2 h
same,CLss_F,"Cohort A1, 115 mg/m2 per dose, C1D15, Geometric Mean, N 6",11.462 L/h
same,AUC_TAU,[13],14092.4 ng·h/mL
same,CLss_F,[13],16.79 L/h
same,Cmax,[13],2090 ng/mL
same,CLss_F,"Cohort A1, 115 mg/m2 per dose, C1D15, Median, N 6",10.95 L/h
same,AUC_TAU,[14],5878.52 ng·h/mL
same,CLss_F,[14],7.45 L/h
same,Cmax,[14],708 ng/mL
same,Tmax,[14],1 h
same,AUC_TAU,[15],8206.77 ng·h/mL and 6238.52 ng·h/mL and 11011.1 ng·h/mL and 5878.52 ng·h/mL and 8933.2 ng·h/mL and 14092.4 ng·h/mL
same,CLss_F,[15],15.84 L/h and 9.62 L/h and 9.99 L/h and 11.91 L/h and 16.79 L/h and 7.45 L/h
same,Cmax,[15],708 ng/mL and 1210 ng/mL and 1530 ng/mL and 859 ng/mL and 2090 ng/mL
same,Tmax,[15],2 h
same,CLss_F,"Cohort A2, 100 mg per dose, C1D15, Geometric Mean, N 5",14.731 L/h
same,AUC_TAU,[16],16686 ng·h/mL
same,CLss_F,[16],32.13 L/h
same,Cmax,[16],1830 ng/mL
same,CLss_F,"Cohort A2, 100 mg per dose, C1D15, Median, N 5",16.3 L/h
same,AUC_TAU,[17],3111.99 ng·h/mL
same,CLss_F,[17],5.99 L/h
same,Cmax,[17],341 ng/mL
same,Tmax,[17],1 h
same,AUC_TAU,[18],16686 ng·h/mL and 10710.2 ng·h/mL and 3111.99 ng·h/mL and 4225.59 ng·h/mL
same,CLss_F,[18],5.99 L/h and 9.34 L/h and 32.13 L/h and 16.3 L/h and 23.67 L/h
same,Cmax,[18],1830 ng/mL and 1630 ng/mL and 341 ng/mL and 528 ng/mL
same,Tmax,[18],2 h
same,AUC_TAU,"Cohort A2, 150 mg per dose, C1D15, Max, N 10",8297.22 ng·h/mL
same,AUC_TAU,[19],4999.09 ng·h/mL
same,Cmax,[19],502 ng/mL
same,Tmax,[19],1 h
same,AUC_TAU,[20],7380.68 ng·h/mL and 6784.89 ng·h/mL and 4999.09 ng·h/mL and 5689.56 ng·h/mL and 7693.93 ng·h/mL and 6576.81 ng·h/mL and 7115.87 ng·h/mL and 7004.8 ng·h/mL and 8297.22 ng·h/mL
same,CLss_F,[20],25.34 L/h and 20.32 L/h and 22.11 L/h and 30.01 L/h and 26.36 L/h and 19.5 L/h and 22.81 L/h and 21.08 L/h
same,Cmax,[20],647 ng/mL and 750 ng/mL and 502 ng/mL and 670 ng/mL and 912 ng/mL and 943 ng/mL and 602 ng/mL and 814 ng/mL
same,Tmax,[20],2 h
same,AUC_TAU,[21],5523.12 ng·h/mL
same,Cmax,[21],721 ng/mL
same,Tmax,[21],2 h
same,AUC_TAU,[22],5523.12 ng·h/mL
same,Cmax,[22],721 ng/mL
same,Tmax,[22],2 h
same,CLss_F,"Cohort B2, 115 mg/m2 per dose, C1D15, Geometric Mean, N 6",13.049 L/h
same,AUC_TAU,[23],17825.7 ng·h/mL
same,CLss_F,[23],20.8 L/h
same,Cmax,[23],2190 ng/mL
same,Tmax,[23],2 h
same,CLss_F,"Cohort B2, 115 mg/m2 per dose, C1D15, Median, N 6",12.47 L/h
same,AUC_TAU,[24],5493.74 ng·h/mL
same,CLss_F,[24],7.85 L/h
same,Cmax,[24],766 ng/mL
same,Tmax,[24],1 h
same,AUC_TAU,[25],17825.7 ng·h/mL and 6932.9 ng·h/mL and 8905.09 ng·h/mL and 5493.74 ng·h/mL and 6008.87 ng·h/mL and 6951.39 ng·h/mL
same,Cmax,[25],2190 ng/mL and 1680 ng/mL and 1330 ng/mL and 766 ng/mL
same,Tmax,[25],2 h
same,Tlast,[26],24 h
same,Tmax,"Cycle 1 Day 1, Cohort A1, 95 mg/m2 per dose, listed as lorlatinib, in h (unit assumed)",2
same,Tlag,[26],0 h
same,Tlast,[27],24 h
same,Tmax,"Cycle 1 Day 1, Cohort A1, 115 mg/m2 per dose, in h (unit assumed)",1
same,Tmax,"Cycle 1 Day 1, Cohort A1, 115 mg/m2 per dose, listed as lorlatinib, in h (unit assumed)",2
same,Tlag,[27],0 h
same,AUMClast,[28],83897.37077 and 79949.21779 and 69497.95951 and 102751.9946 and 91445.2354 and 87523.98089 and 72181.31228
same,Tlast,[28],24 h
same,MRTlast,[29],8.731 and 10.12 and 8.547 and 10.11 and 9.639 and 8.636
same,Tmax,[29],2
same,Clast,"Cycle 1 Day 1, Cohort A2, 150 mg per dose, in ng/mL",158 and 127 and 138 and 146 and 206
same,AUCall,[30],9157 and 6869 and 12022.44647 and 9046 and 9080
same,AUClast,[30],9157 and 6869 and 12022.44647 and 9046 and 9080 and 8359
